The subject of this assay is Rh41. Briefly: Antiproliferative activity against human Rh41 cells assessed as inhibition of cell growth incubated for 72 hrs by 3H-thymidine incorporation assay. It is filed as functional, cell-based.

As to `Cc1cc(Nc2cc(N3CCN(C)CC3)nc(Sc3ccc(NC(=O)C4CC4)cc3)n2)n[nH]1` [TOZASERTIB], the IC50 was 93 nM.

The values are drawn from ChEMBL document CHEMBL5678800 (Mol Cancer Ther, 2009).
